# How the values were obtained:
# in vitro = type: cell-based; settings: human
# From the text: TABLE 3 Cytotoxicity of AB-452 against cells derived from various tissues | column: AB-452 CC50 (μM)
# HBV [1] = experiment: HBV replication intermediates and viral proteins in HepG2.2.15 cells (Northern, Western, particle gel, Southern); type: cell-based, hepatitis B virus; settings: HepG2.2.15, 6 days; ETV, GLS-4, cmpdA 1 μM; AB-452 70 nM
# Protocol: Total cellular RNA was extracted from HepG2.2.15 or HepAD38 cells treated with or without antiviral compounds using TRIzol reagent according to the manufacturer's directions (Thermo Fisher Scientific, Waltham, MA). Northern blotting was performed as described previously ([1]). Briefly, total RNA was separated in a 1.5% agarose gel and transferred onto an Amersham Hybond-XL membrane (product no. GERPN303S; GE Healthcare, IL, USA). Membranes were probed with an [α-^32P]UTP (PerkinElmer, CT, USA)-labeled minus strand-specific full-length HBV riboprobe (3.2 kb) transcribed from plasmid pSP65_HBV(+) DNA. Membranes were exposed to a phosphoimager screen, and the hybridization signals were quantified using Image Studio software (Li-Cor Biosciences, NE, USA).
# Total intracellular viral core-associated DNA was extracted as described previously ([1]) and analyzed by Southern blotting hybridization with an [α-^32P]UTP-labeled full-length HBV riboprobe (3.2 kb) that specifically hybridized to minus strand of viral DNA. Membranes were exposed to a phosphoimager screen, and the hybridization signals were quantified using Image Studio software.
# HepG2.2.15 or HepAD38 cells cultured in a 12-well plate were lysed with 200 μl Laemmli sample buffer (Bio-Rad, PA, USA) supplemented with 2.5% 2-mercaptoethanol (Sigma-Aldrich, MO, USA). […]
# HBV [2] = experiment: AAV-HBV-transduced mouse model; settings: 7 days; for mean reduction of serum HBV DNA vs vehicle / mean reduction of serum HBsAg vs vehicle / reduction of intrahepatic HBsAg levels / reduction of intrahepatic pgRNA levels / reduction of intrahepatic total HBV RNA levels: oral
# Protocol: Male C57BL/6J mice, 6 weeks old, were each inoculated with 1E11 genomes of adeno-associated virus (AAV) vector AAV-HBV1.2 containing a 1.2× overlength sequence of HBV genome (genotype D; GenBank accession no. V01460) ([2]). Mice were administered the AAV2/8-type vector via intravenous tail vein injection. Twenty-eight days after AAV infection, animals were randomized into groups (n = 5) based on serum HBsAg concentration. […] Serum and liver HBsAg concentrations were determined using the Bio-Rad enzyme immunoassay (EIA) GS HBsAg 3.0 kit according to the manufacturer's instructions. […] Total HBV RNA concentrations in the liver were quantified using a branched DNA assay (QuantiGene 2.0; Thermo Fisher Scientific) with probes targeting the shared 3′ region of HBV transcripts, whereas 3.5 kb HBV RNA concentrations were quantified with probes targeting the unique 5′ region of the pgRNA; in both cases, signal was normalized against mouse glyceraldehyde 3-phosphate dehydrogenase (GAPDH).
# HBV [3] = experiment: Antiviral assay in HepG2.2.15 cells (HBsAg/HBeAg CLIA, secreted HBV DNA qPCR); type: cell-based, hepatitis B virus; settings: Hepatitis B virus
# HBV [4] = experiment: Antiviral activity in HBV-infected HepG2-NTCP WT and KO clones; type: cell-based, hepatitis B virus; settings: for EC50: Hepatitis B virus, read-out: HBV infection EC50
structure (smiles),measurement,setting,value
COCCCOc1cc2c(nc1OC)-c1cc(=O)c(C(=O)O)cn1[C@H](C(C)C)C2 [AB-452],CC50,in vitro,> 30000 nM
same,Effect on HBV replication intermediates and viral proteins,HBV [1],"reducing intracellular pgRNA, sRNA, core protein, native capsids, encapsidated pgRNA, and replicating HBV DNA"
same,mean reduction of serum HBV DNA vs vehicle,HBV [2]; 0.1 mg/kg twice daily,0.79 log10
same,mean reduction of serum HBsAg vs vehicle,HBV [2]; 0.1 mg/kg twice daily,0.68 log10
same,reduction of intrahepatic HBsAg levels,HBV [2]; 0.1 mg/kg twice daily,64%
same,reduction of intrahepatic pgRNA levels,HBV [2]; 0.1 mg/kg twice daily,43%
same,reduction of intrahepatic total HBV RNA levels,HBV [2]; 0.1 mg/kg twice daily,35%
same,mean reduction of serum HBV DNA vs vehicle,HBV [2]; 0.3 mg/kg twice daily,1.16 log10
same,mean reduction of serum HBsAg vs vehicle,HBV [2]; 0.3 mg/kg twice daily,0.72 log10
same,reduction of intrahepatic HBsAg levels,HBV [2]; 0.3 mg/kg twice daily,69%
same,reduction of intrahepatic pgRNA levels,HBV [2]; 0.3 mg/kg twice daily,55%
same,reduction of intrahepatic total HBV RNA levels,HBV [2]; 0.3 mg/kg twice daily,55%
same,mean reduction of serum HBV DNA vs vehicle,HBV [2]; 1 mg/kg twice daily,0.94 log10
same,mean reduction of serum HBsAg vs vehicle,HBV [2]; 1 mg/kg twice daily,0.93 log10
same,reduction of intrahepatic HBsAg levels,HBV [2]; 1 mg/kg twice daily,83%
same,reduction of intrahepatic pgRNA levels,HBV [2]; 1 mg/kg twice daily,63%
same,reduction of intrahepatic total HBV RNA levels,HBV [2]; 1 mg/kg twice daily,66%
same,tolerability / body weight,"HBV [2]; oral, 0.1, 0.3, 1 mg/kg twice daily, vs vehicle","well tolerated, with no significant change or reduction in body weight"
same,EC50,"HBV [3]; HepG2-2.2.15, Table 2, read-out: EC50, HBV (HBsAg)",1.2 nM
same,EC50,"HBV [3]; HepG2.2.15 cells, read-out: HBV DNA EC50",0.28 ± 0.01 nM
same,EC50,"HBV [3]; HepG2.2.15 cells, read-out: HBeAg EC50",2.8 ± 2.1 nM
same,EC50,"HBV [3]; HepG2.2.15 cells, read-out: HBsAg EC50",1.4 ± 0.2 nM
same,EC50,HBV [4]; P5_KO (T3-4),37.7 ± 8.3 nM
same,EC50,HBV [4]; P5_KO (T3-15),39.3 ± 3.2 nM
same,EC50,HBV [4]; P7_KO (T2-8),3.8 ± 1.5 nM
same,EC50,"HBV [4]; T222, P7_KO (T2-22)",3.2 ± 1.9 nM
same,EC50,HBV [4]; WT (parent) HepG2-NTCP,2.7 ± 1.8 nM
same,HBV infection FC vs WT,HBV [4]; P5_KO (T3-4),14.0
same,HBV infection FC vs WT,HBV [4]; P5_KO (T3-15),14.6
same,HBV infection FC vs WT,HBV [4]; P7_KO (T2-8),1.4
same,HBV infection FC vs WT,HBV [4]; P7_KO (T2-22),1.2
same,HBV infection FC vs WT,HBV [4]; WT (parent),1

# Reference: PMC8387043, “Host Poly(A) Polymerases PAPD5 and PAPD7 Provide Two Layers of Protection That Ensure the Integrity and Stability of Hepatitis B Virus RNA” (Journal of Virology, 2021)
